Measurements from patent US8075902B2, “Diagnosis and treatment of cancer related to human dormancy” (priority 2007, dated 2011).

What was measured:
[1] = tested on: AU565 human breast cancer cells; experiment: Combination study (MTT), AU565 breast cancer cells, Example 6; type: cell-based; conditions: 6 days, #3 at 2%, #5 at 4%, #6 at 12.5%, FIG. 4
Text: To determine if a combination of antimicrobial agents plus anti-hibernation agents would act synergistically to inhibit cancer, we carried out another study with the human breast cancer cell line AU565 in vitro. We used solution #3 as described above, which included isoniazid (INH), rifampin, ethambutol, minocycline, metronidazole, acyclovir and telithromycin at a 2% concentration of the previous mixture used in Example 5. This was to decrease the cell growth inhibition to ease interpretation of the results. We combined #3 with #6 (curcumin) and #3 with #5 (luteolin) to investigate the synergistic potential of these combinations using the following procedure. […] AU565 human breast cancer cells were routinely maintained in RPMI-1640 medium supplemented with 10% fetal bovine serum, 2 mM sodium pyruvate, and 4.2 g/L glucose. The cells were cultured at 37° C. in an atmosphere of 95% air/5% CO2 and 100% humidity. When cells reached 80% confluence, they were harvested using 0.25% trypsin/EDTA solution. The harvested cells were re-suspended in appropriate medium and reseeded in 96-well plate at a density of 3,000 cells/well/200 μl. Cells were allowed to attach for 24 h, then various concentrations of the test compositions were added to each appropriate well. […] At the end of 6 days, viable cells were measured by MTT assay as described above in Example 2. […]

[2] = cited from earlier work

SMILES | percent inhibition of tumor cell growth [1] | half life [2]
COc1cc(/C=C/C(=O)CC(=O)/C=C/c2ccc(O)c(OC)c2)ccc1O [Sample #6, Curcumin] | 9% | –
O=c1cc(-c2ccc(O)c(O)c2)oc2cc(O)cc(O)c12 [Sample #5, Luteolin] | 10% | –
O=C1O[C@H]([C@@H](O)CO)C(O)=C1O [Ascorbic acid] | – | 30 min
